Assay results from US20230016424A1, “HYBRID AMIDE DERIVATIVES OF AMPHOTERICIN B” (The Board of Trustees of the University of Illinois, priority 2019, published 2023).
Converted amounts (≈) assume the structure as drawn.

Key:
[1] = system: C. albicans SN250, C. albicans, C. krusei, C. glabrata, C. tropicalis, A. fumigatus 91, 1163, 1100; test: Average MIC over the tested strains; type: cell-based; design: Avg. MIC of AmB amide: unit not given here; details: for Avg. MIC of AmB amide: value of the corresponding C16 amide of AmB, not of the C2’epi compound
C. albicans SN250 = test: MIC; type: cell-based, Candida albicans
C. tropicalis = test: MIC; type: cell-based
A. fumigatus 1100 = test: MIC; type: cell-based
C. krusei = test: MIC; type: cell-based
C. glabrata = test: MIC; type: cell-based
A. fumigatus 1163 = test: MIC; type: cell-based
C. albicans = test: MIC; type: cell-based
A. fumigatus 91 = test: MIC; type: cell-based
[2] = Tables 8 and 9, average over the 8 listed strains
[3] = Table 12, C16 amides of C2'epiAmB
[4] = Table 13, C16 amides of C2’epiAmB

| MIC A. fumigatus 91 (A. fumigatus 91) [µM] | SMILES | Average MIC [1, 2] [µM] | MIC C. albicans SN250 (C. albicans SN250) [µM] | MIC C. tropicalis (C. tropicalis) [µM] | MIC A. fumigatus 1100 (A. fumigatus 1100) [µM] | MIC C. krusei (C. krusei) [µM] | MIC C. glabrata (C. glabrata) [µM] | MIC A. fumigatus 1163 (A. fumigatus 1163) [µM] | MIC C. albicans (C. albicans) [µM] | Average MIC [1, 3] [µM] | Avg. MIC of AmB amide [1] | Average MIC [1, 4] [µM] |
| --- | --- | --- | --- | --- | --- | --- | --- | --- | --- | --- | --- | --- |
|  | CC1C=CC=CC=CC=CC=CC=CC=CC(OC2OC(C)C(O)C(N)C2O)CC2OC(O)(CC(O)CC(O)C(O)CCC(O)CC(O)CC(=O)OC(C)C(C)C1O)CC(O)C2C(=O)NC1CCCC1 (centres unmarked) [AR5] | 1063 | 500 (≈ 496 µg/mL) | 500 (≈ 496 µg/mL) | 1500 (≈ 1490 µg/mL) | 500 (≈ 496 µg/mL) |  |  |  |  |  |  |
|  | CC1C=CC=CC=CC=CC=CC=CC=CC(OC2OC(C)C(O)C(N)C2O)CC2OC(O)(CC(O)CC(O)C(O)CCC(O)CC(O)CC(=O)OC(C)C(C)C1O)CC(O)C2C(=O)NC1CCCCC1 (centres unmarked) [AR6] | 891 | 500 (≈ 503 µg/mL) | 500 (≈ 503 µg/mL) | 1500 (≈ 1510 µg/mL) |  | 750 (≈ 754 µg/mL) | 1000 (≈ 1010 µg/mL) |  |  |  |  |
|  | CC1C=CC=CC=CC=CC=CC=CC=CC(OC2OC(C)C(O)C(N)C2O)CC2OC(O)(CC(O)CC(O)C(O)CCC(O)CC(O)CC(=O)OC(C)C(C)C1O)CC(O)C2C(=O)NC1CCCCCC1 (centres unmarked) [AR7] | 1469 |  |  |  | 1000 (≈ 1020 µg/mL) | 2000 (≈ 2040 µg/mL) |  |  |  |  |  |
|  | CC1C=CC=CC=CC=CC=CC=CC=CC(OC2OC(C)C(O)C(N)C2O)CC2OC(O)(CC(O)CC(O)C(O)CCC(O)CC(O)CC(=O)OC(C)C(C)C1O)CC(O)C2C(=O)NC1CCCCCCCCCCC1 (centres unmarked) [AR12] | 5000 |  | 3000 (≈ 3270 µg/mL) | 8000 (≈ 8720 µg/mL) | 8000 (≈ 8720 µg/mL) |  |  | 2000 (≈ 2180 µg/mL) |  |  |  |
|  | CC1C=CC=CC=CC=CC=CC=CC=CC(OC2OC(C)C(O)C(N)C2O)CC2OC(O)(CC(O)CC(O)C(O)CCC(O)CC(O)CC(=O)OC(C)C(C)C1O)CC(O)C2C(=O)NC1CCCCCCCCC1 (centres unmarked) [AR-10] | 2250 | 1000 (≈ 1060 µg/mL) |  |  | 1000 (≈ 1060 µg/mL) | 2000 (≈ 2120 µg/mL) |  |  |  |  |  |
|  | CC1C=CC=CC=CC=CC=CC=CC=CC(OC2OC(C)C(O)C(N)C2O)CC2OC(O)(CC(O)CC(O)C(O)CCC(O)CC(O)CC(=O)OC(C)C(C)C1O)CC(O)C2C(=O)NCCC#N (centres unmarked) [BO] |  |  | 500 (≈ 488 µg/mL) |  |  |  | 1500 (≈ 1460 µg/mL) |  | 1.188 | 0.42 |  |
| 4000 (≈ 3950 µg/mL) | CC1C=CC=CC=CC=CC=CC=CC=CC(OC2OC(C)C(O)C(N)C2O)CC2OC(O)(CC(O)CC(O)C(O)CCC(O)CC(O)CC(=O)OC(C)C(C)C1O)CC(O)C2C(=O)NCC(F)F (centres unmarked) [BQ] |  |  |  |  |  |  |  |  | 1.625 | 0.30 | 1625 |
|  | CC1C=CC=CC=CC=CC=CC=CC=CC(OC2OC(C)C(O)C(N)C2O)CC2OC(O)(CC(O)CC(O)C(O)CCC(O)CC(O)CC(=O)OC(C)C(C)C1O)CC(O)C2C(=O)NC1COCC1O (centres unmarked) [BR] |  |  | 500 (≈ 505 µg/mL) |  |  |  |  |  | 1.688 | 0.38 | 1250 |
